According to patent US4112228A, “7-(D-α-Hydroxy-2-arylacetamido)-3-(2-carboxyalkyl-2,3-dihydro-s-tri azolo-[4,3-b]pyridazin-3-on-6-ylthiomethyl)-3-cephem-4-carboxylic acids and derivatives” (priority 1977, dated 1978):
≈ marks a conversion by molar mass, not a printed value. Read-outs that look alike come from different tables or passages of the source.

How the values were obtained:
P. stuartii = assay: MIC by Steers' agar dilution method; conditions: Providencia stuartii
[1] = test system: P. mirabilis A9900 (Pm-2); assay: Standard experimental infection (single sc treatment); conditions: for No. of survivors/No. tested: Run C-810, 1×10^3 LD50, single sc
E. coli Juhl = assay: Standard experimental infection in mice; format: in vivo; conditions: Table 6
S. typhimurium = assay: MIC by Steers' agar dilution method; conditions: Salmonella enterica
Urinary recovery in rats = format: in vivo; conditions: rat, urine, sc 10 mg./kg., 0-24 Hrs.
Shig. sonnei = assay: MIC by Steers' agar dilution method; format: cell-based; conditions: Shigella sonnei, MHA
E. coli = assay: MIC by Steers' agar dilution method; format: cell-based; conditions: Escherichia coli

Structure (SMILES): O=C(O)Cn1nc2ccc(SCC3=C(C(=O)O)N4C(=O)C(NC(=O)[C@H](O)c5ccccc5)[C@H]4SC3)nn2c1=O (stereo partly drawn) [BB-S488, 7-(D-Mandelamido)-3-(2-carboxymethyl-2,3-dihydro-s-triazolo[4,3-b]pyridazin-3-on-6-ylthiomethyl)-3-cephem-4-carboxylic Acid]
- MIC (P. stuartii; Ps-1 A20745, HIA, Table 4): 50 µg/mL (≈ 87.3 µM)
- MIC (P. stuartii; Ps-1 A20745, MHA, Table 3): 0.4 µg/mL (≈ 0.699 µM)
- MIC (P. stuartii; Ps-1 A20745, MHA, Table 4): 12.5 µg/mL (≈ 21.8 µM)
- MIC (P. stuartii; Ps-1 A20745, NA, Table 4): 50 µg/mL (≈ 87.3 µM)
- MIC (P. stuartii; Ps-2 A20894, HIA, Table 4): 0.4 µg/mL (≈ 0.699 µM)
- MIC (P. stuartii; Ps-2 A20894, MHA, Table 3): 0.2 µg/mL (≈ 0.349 µM)
- MIC (P. stuartii; Ps-2 A20894, MHA, Table 4): 0.2 µg/mL (≈ 0.349 µM)
- MIC (P. stuartii; Ps-2 A20894, NA, Table 4): 0.8 µg/mL (≈ 1.4 µM)
- MIC (P. stuartii; Ps-3 A20911 (β-lactamase), HIA, Table 4): 25 µg/mL (≈ 43.7 µM)
- MIC (P. stuartii; Ps-3 A20911 (β-lactamase), MHA, Table 4): 12.5 µg/mL (≈ 21.8 µM)
- MIC (P. stuartii; Ps-3 A20911 (β-lactamase), NA, Table 4): 50 µg/mL (≈ 87.3 µM)
- MIC (P. stuartii; Ps-3 A20911, MHA, Table 3): 0.8 µg/mL (≈ 1.4 µM)
- MIC (P. stuartii; Ps-4 A21051, MHA, Table 3): 50 µg/mL (≈ 87.3 µM)
- MIC (P. stuartii; Ps-5 A21057, MHA, Table 3): 0.2 µg/mL (≈ 0.349 µM)
- ED50 ([1]; Proteus mirabilis, in Mus musculus, sc, read-out: PD50): 1.1 mg/kg
- No. of survivors/No. tested ([1]; 0.1 mg./kg.): 0/5
- No. of survivors/No. tested ([1]; 0.4 mg./kg.): 0/5
- No. of survivors/No. tested ([1]; 1.6 mg./kg.): 4/5
- No. of survivors/No. tested ([1]; 6.3 mg./kg.): 5/5
- No. of survivors/No. tested ([1]; 25 mg./kg.): 5/5
- No. of survivors/No. tested (E. coli Juhl; 0.1 mg./kg.): 2/5
- No. of survivors/No. tested (E. coli Juhl; 0.4 mg./kg.): 5/5
- No. of survivors/No. tested (E. coli Juhl; 1.6 mg./kg.): 5/5
- No. of survivors/No. tested (E. coli Juhl; 6.3 mg./kg.): 5/5
- No. of survivors/No. tested (E. coli Juhl; 25 mg./kg.): 5/5
- ED50 (E. coli Juhl; Escherichia coli, read-out: PD50): 0.12 mg/kg
- MIC (S. typhimurium): 0.1 µg/mL (≈ 0.175 µM)
- dose excreted at 24 h (Urinary recovery in rats): 38.8%
- MIC (Shig. sonnei; A9516, Table 1): 0.025 µg/mL (≈ 0.0437 µM)
- MIC (Shig. sonnei; Example 10): 0.05 µg/mL (≈ 0.0873 µM)
- MIC (Shig. sonnei; Ss-1 Yale, Table 3): 0.1 µg/mL (≈ 0.175 µM)
- MIC (E. coli; A9660, MHA, Table 1, read-out: MIC): 0.05 µg/mL (≈ 0.0873 µM)
- MIC (E. coli; A15147, MHA, Table 1, read-out: MIC): 3.1 µg/mL (≈ 5.41 µM)
- MIC (E. coli; A15810, MHA, Table 1, read-out: MIC): 0.1 µg/mL (≈ 0.175 µM)
- MIC (E. coli; ATCC8739, ATCC 8739, MHA, Example 10): 6.3 µg/mL (≈ 11 µM)
- MIC (E. coli; ATCC8739, ATCC 8739, MHA, Table 1, read-out: MIC): 0.1 µg/mL (≈ 0.175 µM)
- MIC (E. coli; ATCC8739, Ec-15 ATCC 8739, HIA, Table 4, read-out: MIC): 0.2 µg/mL (≈ 0.349 µM)
- MIC (E. coli; ATCC8739, Ec-15 ATCC 8739, MHA, Table 3, read-out: MIC): 0.2 µg/mL (≈ 0.349 µM)
- MIC (E. coli; ATCC8739, Ec-15 ATCC 8739, MHA, Table 4, read-out: MIC): 0.2 µg/mL (≈ 0.349 µM)
- MIC (E. coli; ATCC8739, Ec-15 ATCC 8739, NA, Table 4, read-out: MIC): 0.1 µg/mL (≈ 0.175 µM)
- MIC (E. coli; BX-1373, MHA, Example 10, read-out: MIC): 3.1 µg/mL (≈ 5.41 µM)
- MIC (E. coli; BX-1373, MHA, Table 1, read-out: MIC): 0.2 µg/mL (≈ 0.349 µM)
- MIC (E. coli; Ec-1 NIHJ, HIA, Table 4, read-out: MIC): 0.05 µg/mL (≈ 0.0873 µM)
- MIC (E. coli; Ec-1 NIHJ, MHA, Table 3, read-out: MIC): 0.2 µg/mL (≈ 0.349 µM)
- MIC (E. coli; Ec-1 NIHJ, MHA, Table 4, read-out: MIC): 0.05 µg/mL (≈ 0.0873 µM)
- MIC (E. coli; Ec-1 NIHJ, NA, Table 4, read-out: MIC): 0.1 µg/mL (≈ 0.175 µM)
- MIC (E. coli; Ec-3 Juhl A15119, HIA, Table 4, read-out: MIC): 0.4 µg/mL (≈ 0.699 µM)
- MIC (E. coli; Ec-3 Juhl A15119, MHA, Table 3, read-out: MIC): 0.2 µg/mL (≈ 0.349 µM)
- MIC (E. coli; Ec-3 Juhl A15119, MHA, Table 4, read-out: MIC): 0.2 µg/mL (≈ 0.349 µM)
- MIC (E. coli; Ec-3 Juhl A15119, NA, Table 4, read-out: MIC): 0.2 µg/mL (≈ 0.349 µM)
- MIC (E. coli; Ec-4 A15169, MHA, Table 3, read-out: MIC): 12.5 µg/mL (≈ 21.8 µM)
- MIC (E. coli; Ec-5 K-12, ML-1630 A20363, MHA, Table 3, read-out: MIC): 0.2 µg/mL (≈ 0.349 µM)
- MIC (E. coli; Ec-11 A20366 (β-lactamase), HIA, Table 4, read-out: MIC): > 100 µg/mL
- MIC (E. coli; Ec-11 A20366 (β-lactamase), MHA, Table 4, read-out: MIC): > 100 µg/mL
- MIC (E. coli; Ec-11 A20366 (β-lactamase), NA, Table 4, read-out: MIC): > 100 µg/mL
- MIC (E. coli; Ec-11 A20366, MHA, Table 3, read-out: MIC): 50 µg/mL (≈ 87.3 µM)
- MIC (E. coli; Ec-34 A9660, MHA, Table 3, read-out: MIC): 0.1 µg/mL (≈ 0.175 µM)
- MIC (E. coli; Ec-35 A9435, MHA, Table 3, read-out: MIC): 0.4 µg/mL (≈ 0.699 µM)
- MIC (E. coli; Ec-36 A15147 (β-lactamase), HIA, Table 4, read-out: MIC): 6.3 µg/mL (≈ 11 µM)
- MIC (E. coli; Ec-36 A15147 (β-lactamase), MHA, Table 4, read-out: MIC): 6.3 µg/mL (≈ 11 µM)
- MIC (E. coli; Ec-36 A15147 (β-lactamase), NA, Table 4, read-out: MIC): 6.3 µg/mL (≈ 11 µM)
- MIC (E. coli; Ec-36 A15147, MHA, Table 3, read-out: MIC): 3.1 µg/mL (≈ 5.41 µM)
- MIC (E. coli; Ec-40 A20361, MHA, Table 3, read-out: MIC): 0.2 µg/mL (≈ 0.349 µM)
- MIC (E. coli; Ec-44 A9535, MHA, Table 3, read-out: MIC): 0.1 µg/mL (≈ 0.175 µM)
- MIC (E. coli; Ec-45 A15148, MHA, Table 3, read-out: MIC): 3.1 µg/mL (≈ 5.41 µM)
- MIC (E. coli; Ec-46 A15164 (β-lactamase), HIA, Table 4, read-out: MIC): > 100 µg/mL
- MIC (E. coli; Ec-46 A15164 (β-lactamase), MHA, Table 4, read-out: MIC): 100 µg/mL (≈ 175 µM)
- MIC (E. coli; Ec-46 A15164 (β-lactamase), NA, Table 4, read-out: MIC): 50 µg/mL (≈ 87.3 µM)
- MIC (E. coli; Ec-46 A15164, MHA, Table 3, read-out: MIC): 25 µg/mL (≈ 43.7 µM)
- MIC (E. coli; Ec-47 A15170, MHA, Table 3, read-out: MIC): 100 µg/mL (≈ 175 µM)
